Among the data in ChEMBL document CHEMBL5154722, “Identification of new potent anticancer derivatives through simplifying the core structure and modification on their 14- hydroxyl group from oridonin” (Eur J Med Chem, 2022) are Activity and IC50 values, retold here.

Molecules are shown by their SMILES. The source made the active and inactive calls. The rule behind the calls is not given here.

A short description of data set [1]: Toxicity in ICR mouse allografted with mouse H22 cells assessed as effect on heart morphology at 10 to 20 mg/kg, iv administered once a day for 21 days after 7 days of tumor implantation by H and E staining method. As to conditions: in vivo, 504 h, dose 10-20 mg/kg, time 21 day. The format is organism-based.
In data set [2] the test system is K562. In words: Induction of cell cycle arrest in human K562 cells assessed as accumulation of cells at S phase at 25 nM measured after 48 hrs by propidium iodide staining-based flow cytometric analysis (reference value: 37.29%). The format is functional.
For data set [3], the system named is K562. In words: Induction of cell cycle arrest in human K562 cells assessed as accumulation of cells at S phase at 50 nM measured after 48 hrs by propidium iodide staining-based flow cytometric analysis (reference value: 37.29%). The format is functional.
In data set [4] the test system is K562. The experiment in a line: Induction of apoptosis in human K562 cells assessed as decrease in Bcl-2 level at 25 to 100 nM measured after 48 hrs by Western blot analysis. The format is functional, cell-based. To be noted: dose 25-100 nM.
Data set [5] concerns K562. The experiment in a line: Induction of apoptosis in human K562 cells assessed as late apoptotic cells at 25 nM measured after 48 hrs by Annexin V-FITC/PI staining based flow cytometry method (reference value: 3.53%). The format is functional.
Data set [6] has as its system K562. The experiment in a line: Induction of apoptosis in human K562 cells assessed as intracellular ROS generation at 100 uM measured after 48 hrs by DCFH-DA staining based flow cytometry method (reference value: 0.41%). The format is functional.
Data set [7] deals with K562. In words: Induction of apoptosis in human K562 cells assessed as increase in Bax/Bcl-2 ratio at 25 to 100 nM measured after 48 hrs by Western blot analysis. The format is functional, cell-based. As to conditions: dose 25-100 nM.
For data set [8], the system named is K562. In words: Induction of apoptosis in human K562 cells assessed as necrotic cells at 25 nM measured after 48 hrs by Annexin V-FITC/PI staining based flow cytometry method (reference value: 0.44%). The format is functional.
Data set [9] concerns K562. The experiment in a line: Induction of apoptosis in human K562 cells assessed as late apoptotic cells at 100 nM measured after 48 hrs by Annexin V-FITC/PI staining based flow cytometry method (reference value: 3.53%). The format is functional.
Data set [10] relates to K562. The experiment in a line: Induction of apoptosis in human K562 cells assessed as increase in caspase-9 level measured after 48 hrs by Western blot analysis. The format is functional, cell-based. To be noted: dose 25-100 nM, DDE = dose-dependent effect.
In data set [11] the test system is K562. In words: Induction of apoptosis in human K562 cells assessed as increase in Bax level at 25 to 100 nM measured after 48 hrs by Western blot analysis. The format is functional, cell-based. As to conditions: dose 25-100 nM.
The subject of data set [12] is K562. In words: Induction of cell cycle arrest in human K562 cells assessed as accumulation of cells at G1 phase at 25 nM measured after 48 hrs by propidium iodide staining-based flow cytometric analysis (reference value: 47.40%). The format is functional.
Data set [13] deals with K562. The experiment in a line: Inhibition of MAPK signaling pathway in human K562 cells assessed as reduction in phosphorylated MEK measured after 48 hrs by Western blot analysis. The format is cell-based. As to conditions: dose 25-100 nM, DDE = dose-dependent effect.
Data set [14] deals with K562. The experiment in a line: Induction of apoptosis in human K562 cells assessed as early apoptotic cells at 25 nM measured after 48 hrs by Annexin V-FITC/PI staining based flow cytometry method (reference value: 1.62%). The format is functional.
In data set [15] the test system is K562. The experiment in a line: Antiproliferative activity against human K562 cells assessed as reduction in cell viability incubated for 72 hrs by MTT assay. The format is functional, cell-based. As to conditions: K562, 72 h.
Data set [16] deals with K562. The experiment in a line: Induction of apoptosis in human K562 cells assessed as early apoptotic cells at 100 nM measured after 48 hrs by Annexin V-FITC/PI staining based flow cytometry method (reference value: 1.62%). The format is functional.
In data set [17] the test system is K562. In words: Induction of apoptosis in human K562 cells assessed as reduction in phosphorylated ERK level measured after 48 hrs by Western blot analysis. The format is functional, cell-based. As to conditions: dose 25-100 nM, DDE = dose-dependent effect.
Data set [18] is described as follows: Toxicity in ICR mouse allografted with mouse H22 cells assessed as effect on spleen morphology at 10 to 20 mg/kg, iv administered once a day for 21 days after 7 days of tumor implantation by H and E staining method. The format is organism-based. To be noted: in vivo, 504 h, dose 10-20 mg/kg, time 21 day.
Data set [19] can be described thus: Toxicity in ICR mouse allografted with mouse H22 cells assessed as change in body weight at 10 to 20 mg/kg, iv administered once a day for 21 days after 7 days of tumor implantation measured every two days. The format is organism-based. To be noted: in vivo, 504 h, dose 10-20 mg/kg, time 21 day.
Data set [20] can be described thus: Toxicity in ICR mouse allografted with mouse H22 cells assessed as effect on lung morphology at 10 to 20 mg/kg, iv administered once a day for 21 days after 7 days of tumor implantation by H and E staining method. The format is organism-based. As to conditions: in vivo, 504 h, dose 10-20 mg/kg, time 21 day.
For data set [21], the system named is K562. In words: Induction of cell cycle arrest in human K562 cells assessed as accumulation of cells at S phase at 100 nM measured after 48 hrs by propidium iodide staining-based flow cytometric analysis (reference value: 37.29%). The format is functional.
In data set [22] the test system is K562. The experiment in a line: Induction of apoptosis in human K562 cells assessed as reduction in phosphorylated PI3K level measured after 48 hrs by Western blot analysis. The format is functional, cell-based. As to conditions: dose 25-100 nM, DDE = dose-dependent effect.

As for `C=C1C(=O)[C@]23[C@H](OC(=O)/C=C/c4ccncc4)[C@H]1CC[C@H]2[C@]12CCCC(C)(C)[C@H]1[C@H](O)[C@@]3(O)OC2`, the Activity entry is “Non-Toxic” in data set [1]; 38.36% in the data set with K562 [2]; 36.52% with K562 [3]; 6.87% in the data set on K562 [5]; 63.43% in the data set on K562 [6]; 0.05% in the data set on K562 [8]. In addition, the Activity with K562 [9] was 20.92%; in the data set on K562 [10] it was “Dde”; in the data set with K562 [12], 39.5%; in the data set with K562 [13], “Dde”; with K562 [14], 10.6%; in the data set on K562 [16], 42.81%. The Activity result in the data set with K562 [17] was “Dde”; in data set [18], “Non-Toxic”; in data set [19], “Non-Toxic”; in data set [20], “Non-Toxic”; in the data set on K562 [21] it was 35.31%; with K562 [22] it was “Dde”. Further, the result with K562 [4], in the data set on K562 [7] and in the data set with K562 [11] was Active. Besides, the half-maximal inhibitory concentration (IC50) with K562 [15] was found to be 90 nM.
